Paper PMC8781192, “An In Silico and an In Vitro Inhibition Analysis of Glycogen Phosphorylase by Flavonoids, Styrylchromones, and Pyrazoles” (Nutrients, 2022)
Like-named read-outs stand apart in the source and are kept apart here.

Key:
[1] = tested on: rabbit mGPa and mGPb, together with human lGPa; parameters: method as in PMID 32771768; details: direction of glycogen synthesis; cited from earlier work
[2] = target: T1, rabbit mGPa (Oryctolagus cuniculus, UniProt P00489); experiment: In vitro glycogen phosphorylase inhibition assay (direction of glycogen synthesis, colorimetric phosphate); format: biochemical; details: no glucose; mean ± SEM; read-out: GPa IC50 value
T1 construct: purchased Creative Enzymes
T1 sequence (P00489 2-843 limits assumed): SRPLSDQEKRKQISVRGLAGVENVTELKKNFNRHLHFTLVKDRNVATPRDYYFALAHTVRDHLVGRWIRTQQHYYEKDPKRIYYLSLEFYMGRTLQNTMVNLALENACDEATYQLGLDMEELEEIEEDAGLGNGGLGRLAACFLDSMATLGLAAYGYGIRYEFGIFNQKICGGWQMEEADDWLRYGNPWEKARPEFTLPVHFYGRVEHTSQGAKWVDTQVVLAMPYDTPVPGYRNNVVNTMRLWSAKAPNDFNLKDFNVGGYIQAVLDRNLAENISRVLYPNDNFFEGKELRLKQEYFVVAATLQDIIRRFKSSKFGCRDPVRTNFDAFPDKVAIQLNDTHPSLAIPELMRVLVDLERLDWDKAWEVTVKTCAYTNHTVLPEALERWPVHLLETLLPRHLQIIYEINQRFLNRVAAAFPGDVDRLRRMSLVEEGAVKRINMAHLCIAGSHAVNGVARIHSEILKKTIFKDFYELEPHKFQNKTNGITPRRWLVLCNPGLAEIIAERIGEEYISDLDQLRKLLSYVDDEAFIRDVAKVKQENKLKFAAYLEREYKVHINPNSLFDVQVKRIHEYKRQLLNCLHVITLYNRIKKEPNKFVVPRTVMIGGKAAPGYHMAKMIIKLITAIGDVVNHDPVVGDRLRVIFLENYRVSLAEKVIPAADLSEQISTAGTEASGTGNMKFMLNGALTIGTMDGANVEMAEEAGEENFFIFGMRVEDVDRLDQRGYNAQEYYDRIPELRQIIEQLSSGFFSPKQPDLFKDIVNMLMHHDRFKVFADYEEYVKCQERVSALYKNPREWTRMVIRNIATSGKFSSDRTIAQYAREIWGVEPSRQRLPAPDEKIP
Method: The GP activity was measured using a previously optimized and validated method. In each assay, GP activity was measured by the direction of glycogen synthesis, which involved monitoring the colorimetric determination of inorganic phosphate deriving from glucose 1-phosphate. […] The enzymatic reaction was then started with the addition of a 50 mM HEPES buffer solution, with a pH of 7.2, containing 100 mM KCl, 2.5 mM MgCl2, 0.25 mM glucose 1-phosphate, and 0.25 mg/mL glycogen incubated for 30 min at 37 °C. After this incubation time, the reagent for colorimetric phosphate quantitation, BIOMOL® Green, was added to the reaction mixture. The reaction was monitored in a microplate reader (Synergy HT, BioTek Instruments, Winooski, VT, USA) at 620 nm.

[3] = tested on: GPb; parameters: method as in PMID 16317787; details: direction of glycogen breakdown; cited from earlier work
[4] = target: T1, rabbit mGPa; experiment: In vitro effect of glucose on inhibitor potency (GPa inhibition with 0, 5, 10 mM glucose); format: biochemical; details: mean ± SEM, read-out: GPa IC50 value
Method: The method was performed as described in Section 2.2, with slight modifications. […] The enzymatic reaction was then started with the addition of a 50 mM HEPES buffer solution with a pH of 7.2 containing 100 mM KCl, 2.5 mM MgCl2, 0.25 mM glucose 1-phosphate, and 0.25 mg/mL glycogen. This buffer was used without glucose, or it was enriched with 5 and 10 mM of glucose and was incubated for 30 min at 37 °C in the reaction mixture. After this incubation time, BIOMOL® Green was added, and the reaction was monitored in a microplate reader (Synergy HT, BioTek Instruments, Winooski, VT, USA) at 620 nm.

[5] = target: T1, rabbit mGPa; parameters: method as in PMID 16317787; details: direction of glycogen breakdown; cited from earlier work
[6] = tested on: GP; parameters: method as in PMID 18494482; details: cited from earlier work

O=c1cc(-c2ccccc2)oc2cc(O)cc(O)c12 [Compound 38, Chrysin]
potency relative to flavonoid 45, quercetin [1]: ~10 fold | IC50 [2]: 19.3 ± 1.5 µM | IC50 [3]: 15.3 ± 1 µM | IC50 ([4]; 0 mM of glucose): 19.3 ± 1.5 µM | IC50 ([4]; 5 mM of glucose): 8.8 ± 0.8 µM | IC50 ([4]; 10 mM of glucose): 5.2 ± 0.3 µM | IC50 [5]: 27.5 µM | IC50 [6]: > 200 µM
